Read-outs that look alike come from different tables or passages of the source.
How the values were obtained:
A2780 = assay: Anti-proliferative effect (CellTiter-Glo, 72 h), A2780; type: cell-based; conditions: A2780 cells, median, read-out: IC50 antiproliferation assay A2780 [M] (median)
Outline: (§1)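 Luminescence from CellTiter-Glo, read 10 min after reagent addition, reports viable cell content after 72 h of compound treatment at 37 °C. A reference plate read at day 0 gives the starting baseline.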

MCL-1 = MCL-1 (Homo sapiens, UniProt Q07820); assay: Protein-protein interaction assay MCL-1/Noxa BH3 peptide (MCL-1 assay), TR-FRET; type: binding; conditions: MBP-MCL-1 / Noxa BH3-derived peptide, median
Outline: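 Inhibition values were normalized between DMSO controls with all reagents and controls lacking MCL-1. The binding competition used 1 nM MBP-MCL-1 in pH 7 Tris buffer containing 50 mM KF and 100 mM NaCl, with a 10 min compound preincubation at 22 °C.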

SUDHL10 [1] = assay: Induction of cytotoxicity (CellTiter-Glo, 5 h), SUDHL10; conditions: Homo sapiens, SU-DHL10, 5 h, read-out: Cytotox SUDHL10 [M] (median), SUDHL10 cells, cytotoxicity induction, CellTiter-Glo, 5 h incubation, median
SUDHL5 [2] = assay: Induction of caspase-3/7 activity (Caspase-Glo 3/7), SUDHL5; type: cell-based; conditions: Homo sapiens, SU-DHL-5, 3 h, caspase-3/7 induction, SUDHL5 cells, 3 h treatment; median
Outline: (§2)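 Apoptosis induction measured as caspase-3/7 activity (Caspase-Glo 3/7) in DLBCL lines after 3 h treatment at 37 °C; EC50 derived relative to the reference compound's maximal induction, with C0 fixed at 1.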

SUDHL5 [3] = assay: Induction of cytotoxicity (CellTiter-Glo, 5 h), SUDHL5; conditions: Homo sapiens, SU-DHL-5, 5 h, read-out: Cytotox SUDHL5 [M] (median), SUDHL5 cells, cytotoxicity induction, CellTiter-Glo, 5 h incubation, median
SUDHL5 [4] = assay: Anti-proliferative effect (CellTiter-Glo, 72 h), SUDHL5; type: cell-based; conditions: Homo sapiens, SU-DHL-5, 72 h, SUDHL5 cells, antiproliferation, 72 h incubation, median, read-out: Antiproli SUDHL5 [M] (median)
Outline: as §1

SUDHL10 [5] = assay: Anti-proliferative effect (CellTiter-Glo, 72 h), SUDHL10; type: cell-based; conditions: Homo sapiens, SU-DHL10, 72 h, SUDHL10 cells, antiproliferation, 72 h incubation, median, read-out: Antiproli SUDHL10 [M] (median)
Protocol: Assessment of the Anti-Proliferative Effect of Compounds in Different Cell Lines
The impact of compounds on the proliferation of different cell lines was assessed using the CellTiter-Glo® Luminescent Cell Viability reagent from Promega (G7573). Of note, SUDHL10 and SUDHL5 (DLBCL), NCI-H929 (Multiple Myeloma), A2780 (ovarian carcinoma) as well as MV-4-11(AML) cells are sensitive to MCL-1 inhibition.
In parallel, cells were plated in a reference (day 0) plate for time zero determination.
Rim wells were excluded. The cells were incubated for 72 h hours in a humidified incubator at 37° C. The day 0 plate was measured by adding 30 μl/well of CTG solution (CellTiter-Glo® Luminescent Cell Viability reagent, Promega G7573) to time zero wells in the reference plate followed by a 10 minutes incubation and luminescence reading at 0.1 ms, using the PHERAstar FS microplate reader (BMG Labtech).
After 72 h incubation, the treated plates were measured in the same way as the day 0 plate mentioned above.

SUDHL10 [6] = assay: Induction of caspase-3/7 activity (Caspase-Glo 3/7), SUDHL10; type: cell-based; conditions: Homo sapiens, SU-DHL10, 3 h, caspase-3/7 induction, SUDHL10 cells, 3 h treatment; median
Outline: as §2

Sequence of MCL-1 (Q07820 whole entry): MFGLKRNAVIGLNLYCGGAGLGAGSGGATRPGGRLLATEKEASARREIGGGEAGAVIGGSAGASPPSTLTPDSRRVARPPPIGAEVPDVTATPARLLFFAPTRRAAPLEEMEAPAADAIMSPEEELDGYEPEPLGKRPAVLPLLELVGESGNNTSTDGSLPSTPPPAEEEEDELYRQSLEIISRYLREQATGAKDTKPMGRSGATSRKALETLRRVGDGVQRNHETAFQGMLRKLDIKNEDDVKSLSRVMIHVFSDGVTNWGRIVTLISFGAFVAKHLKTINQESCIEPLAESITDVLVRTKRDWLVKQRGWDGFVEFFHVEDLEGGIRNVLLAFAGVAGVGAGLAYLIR

IC50 (A2780; Homo sapiens, A2780, 72 h) [M] | IC50 (MCL-1) [nM] | EC50 (SUDHL5 [2]) [µM] | IC50 (SUDHL5 [4]) [M] | IC50 (SUDHL10 [5]) [M] | EC50 (SUDHL10 [6]) [µM] | IC50 (A2780) [M] | SMILES | IC50 (SUDHL10 [1]) [M] | IC50 (SUDHL5 [3]) [M]
2.11e-05 | 4.3 | 5.2 | 8.47e-06 | 1.08e-05 | 12.8 | – | COCc1c2c(nn1C)COCCCCn1c(C(=O)O)c(CCCOc3cccc4ccccc34)c3cccc-2c31 (racemic) [Example 099, (rac)-3-(methoxymethyl)-2-methyl-7-[3-(naphthalen-1-yloxy)propyl]-2,10,11,12,13,15-hexahydropyrazolo[4′,3′:9,10][1,6]oxazacycloundecino[8,7,6-hi]indole-8-carboxylic Acid] | 1.75e-05 | 3.86e-06
1.49e-05 | 2.68 | 8.27 | 1.01e-05 | 9.89e-06 | 23.9 | – | COCc1c2c(nn1C)COCCCCn1c(C(=O)O)c(CCCOc3cccc4c3CCCC4)c3cccc-2c31 (racemic) [Example 105, (rac)-3-(methoxymethyl)-2-methyl-7-[3-(5,6,7,8-tetrahydronaphthalen-1-yloxy)propyl]-2,10,11,12,13,15-hexahydropyrazolo[4′,3′:9,10][1,6]oxazacycloundecino[8,7,6-hi]indole-8-carboxylic Acid] | 1.92e-05 | 7.19e-06
> 3.3e-05 | 152 | > 33 | > 3.3e-05 | 2.23e-05 | > 33 | – | CCNCc1nn(C)c2c1-c1cccc3c(CCCOc4cccc5ccccc45)c(C(=O)O)n(c13)CCCCOC2 (racemic) [Example 156, (rac)-3-[(ethylamino)methyl]-1-methyl-7-[3-(naphthalen-1-yloxy)propyl]-1,10,11,12,13,15-hexahydropyrazolo[4′,3′:9,10][1,6]oxazacycloundecino[8,7,6-hi]indole-8-carboxylic Acid] | > 3.3e-05 | > 3.3e-05
> 3.3e-05 | 289 | > 33 | > 3.3e-05 | > 3.3e-05 | > 33 | – | CN1CCCn2c(C(=O)O)c(CCCOc3cccc4ccccc34)c3cccc(c32)-c2c(CN3CCOCC3=O)nn(C)c2C1 (racemic) [Example 157, (rac)-7,9-dimethyl-1-[3-(naphthalen-1-yloxy)propyl]-11-[(3-oxomorpholin-4-yl)methyl]-4,5,6,7,8,9-hexahydropyrazolo[3′,4′:7,8][1,5]diazecino[9,10,1-hi]indole-2-carboxylic Acid] | > 3.3e-05 | > 3.3e-05
1.62e-05 | 52.1 | 15 | 1.36e-05 | 1.26e-05 | > 33 | – | Cc1nn(CC(F)(F)F)c2c1-c1cccc3c(CCCOc4cccc5c4CCCC5)c(C(=O)O)n(c13)CCCCOC2 (racemic) [Example 161, (rac)-3-methyl-7-[3-(5,6,7,8-tetrahydronaphthalen-1-yloxy)propyl]1-(2,2,2-trifluoroethyl)-1,10,11,12,13,15-hexahydropyrazolo[4′,3′:9,10][1,6]oxazacycloundecino[8,7,6-hi]indole-8-carboxylic Acid] | > 3.3e-05 | 1.06e-05
2.03e-05 | 10.7 | 12 | 1.6e-05 | 1.69e-05 | > 33 | – | COCCn1nc(C2CC2)c2c1COCCCCn1c(C(=O)O)c(CCCOc3cccc4c3CCCC4)c3cccc-2c31 (racemic) [Example 164, (rac)-3-Cyclopropyl-1-(2-methoxyethyl)-7-[3-(5,6,7,8-tetrahydronaphthalen-1-yloxy)propyl]-1,10,11,12,13,15-hexahydropyrazolo[4′,3′:9,10][1,6]oxazacycloundecino[8,7,6-hi]indole-8-carboxylic Acid] | 3.07e-05 | 9.23e-06
2.36e-05 | 17.7 | 14.5 | 7.77e-06 | 8.97e-06 | 28.2 | – | Cn1nc(CN2CC(F)(F)C2)c2c1COCCCCn1c(C(=O)O)c(CCCOc3cccc4ccccc34)c3cccc-2c31 (racemic) [Example 180, (rac)-3-[(3,3-difluoroazetidin-1-yl)methyl]-1-methyl-7-[3-(naphthalen-1-yloxy)propyl]-1,10,11,12,13,15-hexahydropyrazolo[4′,3′:9,10][1,6]oxazacycloundecino[8,7,6-hi]indole-8-carboxylic Acid] | 3.11e-05 | 1.1e-05
> 3.3e-05 | 2.25 | 1.46 | 2.43e-06 | 4.14e-06 | 5.89 | 2.39e-05 | COCc1nn(C)c2c1-c1cccc3c(CCCOc4cccc5ccccc45)c(C(=O)O)n(c13)CCCCN(C)C2 (racemic) [Example 183, (rac)-3-(methoxymethyl)-1,14-dimethyl-7-[3-(naphthalen-1-yloxy)propyl]-10,11,12,13,14,15-hexahydro-1H-pyrazolo[3′,4′:8,9][1,6]diazacycloundecino[10,11,1-hi]indole-8-carboxylic Acid] | 5.55e-06 | 1.88e-06
> 3.3e-05 | 15.7 | 9.85 | 8.69e-06 | 1.4e-05 | 18.6 | 2.28e-05 | Cn1nc2c(c1C(F)(F)F)-c1cccc3c(CCCOc4cccc5ccccc45)c(C(=O)O)n(c13)CCCCOC2 (racemic) [Example 186, (rac)-2-methyl-7-[3-(naphthalen-1-yloxy)propyl]-3-(trifluoromethyl)-2,10,11,12,13,15-hexahydropyrazolo[4′3′:9,10][1,6]oxazacycloundecino[8,7,6,6-hi]indole-8-carboxylic Acid] | 2.61e-05 | 1.14e-05
2.17e-05 | 2.61 | 3.71 | 7.27e-06 | 1.41e-05 | 13.3 | > 3.3e-05 | CCCc1nn(C)c2c1-c1c(C)ccc3c(CCCOc4cccc5ccccc45)c(C(=O)O)n(c13)CCCCOC2 (racemic) [Example 187, (rac)-1,4-dimethyl-7-[3-(naphthalen-1-yloxy)propyl]-3-propyl-1,10,11,12,13,15-hexahydropyrazolo[4′,3′:9,10][1,6]oxazacycloundecino[8,7,6-hi]indole-8-carboxylic Acid] | 1.07e-05 | 3.85e-06
2.02e-05 | 5.46 | 3.13 | 2.35e-06 | 5.34e-06 | 7.26 | – | Cc1c2c(nn1C)CCCCCCn1c(C(=O)O)c(CCCOc3cccc4ccccc34)c3cccc-2c31 (racemic) [Example 190, (rac)-2,3-dimethyl-7-[3-(1-naphthyloxy)propyl]-10,11,12,13,14,15-hexahydro-2H-pyrazolo[4′,3′:4,5]azacycloundecino[3,2,1-hi]indole-8-carboxylic Acid] | 9.19e-06 | 3.85e-06
1.9e-05 | 2.33 | 2.47 | 4.45e-06 | 7.14e-06 | 8.35 | – | CCCc1nn(C)c2c1-c1c(C)ccc3c(CCCOc4cccc5ccccc45)c(C(=O)O)n(c13)CCCN(C)C2 (racemic) [Example 193, (rac)-7,9,12-trimethyl-1-[3-(naphthalen-1-yloxy)propyl]-1-propyl-4,5,6,7,8,9-hexahydropyrazolo[3′,4′:7,8][1,5]diazecino[9,10,1-hi]indole-2-carboxylic Acid] | 7.65e-06 | 2.3e-06

Reference: patent publication US10981932B2, “Macrocyclic indole derivatives” (Bayer Aktiengesellschaft, priority 2016, dated 2021)
